Columns and labels:
[1] = target: Sodium-dependent serotonin transporter (Homo sapiens) (UniProt P31645); conditions: Compound concentration 10.0 uM
[2] = target: Histamine H3 receptor (Homo sapiens) (UniProt Q9Y5N1); conditions: Compound concentration 10.0 uM
[3] = target: 5-hydroxytryptamine receptor 1E (Homo sapiens) (UniProt P28566); conditions: Compound concentration 10.0 uM
[4] = target: Mitogen-activated protein kinase kinase kinase 14 (Homo sapiens) (UniProt Q99558); conditions: Compound concentration 1000.0 nM
[5] = target: Receptor-interacting serine/threonine-protein kinase 4 (Homo sapiens) (UniProt P57078); conditions: Compound concentration 1000.0 nM
[6] = target: T1, Muscarinic acetylcholine receptor M2 (Homo sapiens) (UniProt P08172); conditions: Compound concentration 10.0 uM
T1 sequence (whole entry): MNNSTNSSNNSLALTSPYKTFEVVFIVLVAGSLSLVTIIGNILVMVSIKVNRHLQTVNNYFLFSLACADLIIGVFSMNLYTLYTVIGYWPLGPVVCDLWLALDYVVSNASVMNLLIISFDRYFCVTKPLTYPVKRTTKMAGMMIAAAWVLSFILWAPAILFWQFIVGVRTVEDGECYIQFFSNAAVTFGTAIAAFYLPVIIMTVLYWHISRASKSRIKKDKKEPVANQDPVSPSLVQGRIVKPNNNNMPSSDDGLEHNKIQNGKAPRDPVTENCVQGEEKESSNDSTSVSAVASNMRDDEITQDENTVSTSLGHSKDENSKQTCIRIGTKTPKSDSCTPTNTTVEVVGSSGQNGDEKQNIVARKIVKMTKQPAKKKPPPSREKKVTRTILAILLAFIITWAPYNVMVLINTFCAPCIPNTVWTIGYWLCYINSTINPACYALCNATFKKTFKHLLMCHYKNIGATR

[7] = target: 5-hydroxytryptamine receptor 5A (Homo sapiens) (UniProt P47898); conditions: Compound concentration 10.0 uM
[8] = target: 5-hydroxytryptamine receptor 6 (Homo sapiens) (UniProt P50406); conditions: Compound concentration 10.0 uM
[9] = target: T2, 5-hydroxytryptamine receptor 2C (Homo sapiens) (UniProt P28335); conditions: Compound concentration 10.0 uM
T2 sequence (whole entry): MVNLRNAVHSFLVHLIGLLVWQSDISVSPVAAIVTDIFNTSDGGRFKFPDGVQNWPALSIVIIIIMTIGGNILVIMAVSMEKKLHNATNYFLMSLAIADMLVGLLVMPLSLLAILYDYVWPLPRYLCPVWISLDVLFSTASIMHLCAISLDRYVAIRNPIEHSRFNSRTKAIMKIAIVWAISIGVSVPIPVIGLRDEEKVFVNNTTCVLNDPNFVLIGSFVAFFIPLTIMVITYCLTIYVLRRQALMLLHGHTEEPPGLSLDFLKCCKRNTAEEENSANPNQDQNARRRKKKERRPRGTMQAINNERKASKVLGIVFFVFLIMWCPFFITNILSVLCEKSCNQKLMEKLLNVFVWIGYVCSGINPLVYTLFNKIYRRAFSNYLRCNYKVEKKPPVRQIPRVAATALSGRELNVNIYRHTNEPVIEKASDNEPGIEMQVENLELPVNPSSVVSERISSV

[10] = target: Sodium-dependent dopamine transporter (Homo sapiens) (UniProt Q01959); conditions: Compound concentration 10.0 uM
Chain of Sodium-dependent dopamine transporter (Homo sapiens) (Q01959 whole entry): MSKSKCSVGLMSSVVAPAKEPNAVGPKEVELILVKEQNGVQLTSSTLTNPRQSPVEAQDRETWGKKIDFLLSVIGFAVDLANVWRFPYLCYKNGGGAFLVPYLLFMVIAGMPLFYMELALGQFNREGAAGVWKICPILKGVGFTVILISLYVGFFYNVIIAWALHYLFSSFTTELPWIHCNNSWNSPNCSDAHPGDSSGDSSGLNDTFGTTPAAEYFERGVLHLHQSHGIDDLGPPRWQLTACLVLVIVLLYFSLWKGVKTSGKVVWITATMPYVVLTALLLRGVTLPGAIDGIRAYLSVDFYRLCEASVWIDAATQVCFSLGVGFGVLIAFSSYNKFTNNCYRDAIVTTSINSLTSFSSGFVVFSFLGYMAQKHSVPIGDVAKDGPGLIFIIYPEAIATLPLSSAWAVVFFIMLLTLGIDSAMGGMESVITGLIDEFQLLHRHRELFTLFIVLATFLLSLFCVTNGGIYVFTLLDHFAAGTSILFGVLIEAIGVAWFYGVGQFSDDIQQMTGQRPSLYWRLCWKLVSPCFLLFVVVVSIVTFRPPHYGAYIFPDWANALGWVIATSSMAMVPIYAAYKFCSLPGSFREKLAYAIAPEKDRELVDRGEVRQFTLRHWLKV

Chain of Receptor-interacting serine/threonine-protein kinase 4 (Homo sapiens) (P57078 whole entry): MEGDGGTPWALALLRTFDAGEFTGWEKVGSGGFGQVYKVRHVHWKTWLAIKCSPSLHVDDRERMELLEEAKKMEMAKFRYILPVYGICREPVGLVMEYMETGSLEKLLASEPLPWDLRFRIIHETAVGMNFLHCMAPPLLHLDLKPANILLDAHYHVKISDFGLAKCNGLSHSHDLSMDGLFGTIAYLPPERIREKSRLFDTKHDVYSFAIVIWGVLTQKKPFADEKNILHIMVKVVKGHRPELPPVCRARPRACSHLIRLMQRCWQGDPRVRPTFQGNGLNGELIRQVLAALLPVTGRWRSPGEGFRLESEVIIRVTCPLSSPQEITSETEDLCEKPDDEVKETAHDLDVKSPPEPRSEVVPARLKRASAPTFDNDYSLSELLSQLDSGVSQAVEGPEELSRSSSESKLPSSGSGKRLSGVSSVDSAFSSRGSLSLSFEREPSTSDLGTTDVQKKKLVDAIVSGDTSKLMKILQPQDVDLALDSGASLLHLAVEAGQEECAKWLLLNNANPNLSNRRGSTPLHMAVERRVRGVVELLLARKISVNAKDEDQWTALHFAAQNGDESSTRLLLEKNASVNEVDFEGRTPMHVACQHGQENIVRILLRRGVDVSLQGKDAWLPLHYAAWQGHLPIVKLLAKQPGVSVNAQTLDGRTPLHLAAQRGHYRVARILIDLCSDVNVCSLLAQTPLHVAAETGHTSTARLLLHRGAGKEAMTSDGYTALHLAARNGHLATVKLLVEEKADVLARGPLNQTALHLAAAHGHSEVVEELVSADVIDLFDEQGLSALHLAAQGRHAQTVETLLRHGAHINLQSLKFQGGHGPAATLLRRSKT
Chain of Mitogen-activated protein kinase kinase kinase 14 (Homo sapiens) (Q99558 whole entry, looked up): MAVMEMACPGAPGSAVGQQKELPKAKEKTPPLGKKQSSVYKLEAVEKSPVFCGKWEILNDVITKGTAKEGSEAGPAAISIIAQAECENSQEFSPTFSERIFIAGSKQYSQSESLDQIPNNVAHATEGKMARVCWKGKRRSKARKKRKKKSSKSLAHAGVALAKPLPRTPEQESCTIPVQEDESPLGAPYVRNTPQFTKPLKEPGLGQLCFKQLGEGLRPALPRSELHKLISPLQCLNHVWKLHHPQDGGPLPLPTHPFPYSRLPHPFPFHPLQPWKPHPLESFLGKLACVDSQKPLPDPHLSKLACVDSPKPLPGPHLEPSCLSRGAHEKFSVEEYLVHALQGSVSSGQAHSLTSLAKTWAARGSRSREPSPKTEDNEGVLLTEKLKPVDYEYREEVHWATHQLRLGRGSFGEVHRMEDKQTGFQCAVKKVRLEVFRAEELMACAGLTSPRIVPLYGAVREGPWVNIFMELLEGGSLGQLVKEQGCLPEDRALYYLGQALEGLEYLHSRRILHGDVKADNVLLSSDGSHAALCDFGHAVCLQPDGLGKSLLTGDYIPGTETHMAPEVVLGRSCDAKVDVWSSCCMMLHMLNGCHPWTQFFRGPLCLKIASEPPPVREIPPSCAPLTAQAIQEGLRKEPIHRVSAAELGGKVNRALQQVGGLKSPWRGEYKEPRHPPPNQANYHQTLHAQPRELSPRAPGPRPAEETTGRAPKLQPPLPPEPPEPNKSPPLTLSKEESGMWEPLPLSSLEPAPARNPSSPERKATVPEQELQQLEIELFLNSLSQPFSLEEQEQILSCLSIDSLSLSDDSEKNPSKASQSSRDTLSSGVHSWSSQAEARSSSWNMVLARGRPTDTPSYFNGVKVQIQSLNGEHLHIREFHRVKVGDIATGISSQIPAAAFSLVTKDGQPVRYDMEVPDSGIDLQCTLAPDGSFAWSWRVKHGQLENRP
Chain of 5-hydroxytryptamine receptor 6 (Homo sapiens) (P50406 whole entry): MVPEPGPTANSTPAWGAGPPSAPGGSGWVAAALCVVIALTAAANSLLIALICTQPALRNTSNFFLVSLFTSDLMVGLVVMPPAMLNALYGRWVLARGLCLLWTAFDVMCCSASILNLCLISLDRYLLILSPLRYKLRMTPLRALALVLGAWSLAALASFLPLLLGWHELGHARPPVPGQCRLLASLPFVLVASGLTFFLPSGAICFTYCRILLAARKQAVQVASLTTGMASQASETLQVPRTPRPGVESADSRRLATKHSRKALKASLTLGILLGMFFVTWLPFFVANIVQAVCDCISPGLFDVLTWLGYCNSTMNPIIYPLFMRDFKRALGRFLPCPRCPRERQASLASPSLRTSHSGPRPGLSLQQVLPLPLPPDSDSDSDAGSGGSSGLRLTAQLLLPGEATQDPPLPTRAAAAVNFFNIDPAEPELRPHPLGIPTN
Chain of 5-hydroxytryptamine receptor 1E (Homo sapiens) (P28566 whole entry): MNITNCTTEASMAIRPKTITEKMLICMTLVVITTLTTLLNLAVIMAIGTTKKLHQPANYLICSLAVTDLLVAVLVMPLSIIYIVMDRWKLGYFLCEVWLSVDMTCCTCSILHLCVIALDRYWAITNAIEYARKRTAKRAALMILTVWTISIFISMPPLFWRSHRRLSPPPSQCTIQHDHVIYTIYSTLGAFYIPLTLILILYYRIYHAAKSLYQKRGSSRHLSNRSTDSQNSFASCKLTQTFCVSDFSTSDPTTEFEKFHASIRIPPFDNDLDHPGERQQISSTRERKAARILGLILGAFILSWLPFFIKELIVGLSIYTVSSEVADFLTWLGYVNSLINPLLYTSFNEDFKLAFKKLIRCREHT
Chain of Histamine H3 receptor (Homo sapiens) (Q9Y5N1 whole entry): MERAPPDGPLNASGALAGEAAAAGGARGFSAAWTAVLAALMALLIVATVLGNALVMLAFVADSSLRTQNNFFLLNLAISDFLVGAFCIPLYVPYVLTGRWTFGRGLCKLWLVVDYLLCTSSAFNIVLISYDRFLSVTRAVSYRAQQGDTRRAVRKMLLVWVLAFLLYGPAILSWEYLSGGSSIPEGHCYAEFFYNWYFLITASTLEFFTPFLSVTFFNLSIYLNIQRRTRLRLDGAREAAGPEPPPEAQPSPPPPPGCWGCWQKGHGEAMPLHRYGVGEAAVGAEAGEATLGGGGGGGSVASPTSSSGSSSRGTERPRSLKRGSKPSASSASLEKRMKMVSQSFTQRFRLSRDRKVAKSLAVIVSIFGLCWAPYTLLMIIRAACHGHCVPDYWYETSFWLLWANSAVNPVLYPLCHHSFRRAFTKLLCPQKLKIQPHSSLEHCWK
Chain of Sodium-dependent serotonin transporter (Homo sapiens) (P31645 whole entry, looked up): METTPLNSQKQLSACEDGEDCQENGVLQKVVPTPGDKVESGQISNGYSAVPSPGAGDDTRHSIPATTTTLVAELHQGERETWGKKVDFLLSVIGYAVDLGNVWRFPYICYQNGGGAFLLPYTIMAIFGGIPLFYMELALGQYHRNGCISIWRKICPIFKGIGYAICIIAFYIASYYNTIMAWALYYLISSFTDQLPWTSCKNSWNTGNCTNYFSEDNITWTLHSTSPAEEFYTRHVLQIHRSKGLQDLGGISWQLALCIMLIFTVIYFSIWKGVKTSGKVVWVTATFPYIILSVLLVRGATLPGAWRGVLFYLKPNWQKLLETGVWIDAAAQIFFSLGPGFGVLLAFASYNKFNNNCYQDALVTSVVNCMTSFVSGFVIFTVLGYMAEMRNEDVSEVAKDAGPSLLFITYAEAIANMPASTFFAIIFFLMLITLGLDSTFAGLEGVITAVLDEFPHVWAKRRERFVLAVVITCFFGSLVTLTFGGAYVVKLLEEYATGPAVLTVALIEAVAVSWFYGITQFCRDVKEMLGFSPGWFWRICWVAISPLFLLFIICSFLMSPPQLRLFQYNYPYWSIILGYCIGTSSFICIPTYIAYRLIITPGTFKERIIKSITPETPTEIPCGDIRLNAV
Chain of 5-hydroxytryptamine receptor 5A (Homo sapiens) (P47898 whole entry): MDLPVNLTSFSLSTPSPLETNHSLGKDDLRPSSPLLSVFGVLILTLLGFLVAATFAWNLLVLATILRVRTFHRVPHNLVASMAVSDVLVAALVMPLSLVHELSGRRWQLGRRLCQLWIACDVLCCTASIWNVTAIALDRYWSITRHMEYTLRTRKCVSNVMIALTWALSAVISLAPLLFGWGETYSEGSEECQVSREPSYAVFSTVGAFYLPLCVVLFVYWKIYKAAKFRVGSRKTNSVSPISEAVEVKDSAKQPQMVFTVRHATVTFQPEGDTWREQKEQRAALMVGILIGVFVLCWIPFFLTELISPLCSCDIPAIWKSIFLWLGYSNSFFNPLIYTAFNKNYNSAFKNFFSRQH

COc1ccc2c(c1)O[C@H](c1ccc(OC)c(OC)c1)C[C@@H]2NC(=O)C1(c2ccc3c(c2)OC(F)(F)O3)CC1 [A-1596584]
inactive: inhibition [1] 5.75% | inhibition [2] 10.4% | inhibition [3] 1.27% | residual activity [4] 100% | residual activity [5] 75%

COc1ccc2c(c1)O[C@@H](c1ccc(OC)c(OC)c1)C[C@H]2NC(=O)C1(c2ccc3c(c2)OC(F)(F)O3)CC1 [A-1596586]
inactive: inhibition [6] -9.38% | inhibition [7] -7.95% | inhibition [8] -7.58% | inhibition [9] -2.28% | inhibition [10] 6.33% | residual activity [4] 87% | residual activity [5] 67%

Reference: ChEMBL document CHEMBL4507262, “Data for DCP probe A-1596586” (2021)
